According to PMC11054143, “^68Ga-DOTA-D-Alanine-BoroPro Radiotracer for Imaging of the Fibroblast Activation Protein in Malignant and Non-Malignant Diseases” (Pharmaceutics, 2024):

Target: T1, fibroblast activation protein (FAP) (Homo sapiens, UniProt Q12884)
T1 sequence (Q12884 1-760): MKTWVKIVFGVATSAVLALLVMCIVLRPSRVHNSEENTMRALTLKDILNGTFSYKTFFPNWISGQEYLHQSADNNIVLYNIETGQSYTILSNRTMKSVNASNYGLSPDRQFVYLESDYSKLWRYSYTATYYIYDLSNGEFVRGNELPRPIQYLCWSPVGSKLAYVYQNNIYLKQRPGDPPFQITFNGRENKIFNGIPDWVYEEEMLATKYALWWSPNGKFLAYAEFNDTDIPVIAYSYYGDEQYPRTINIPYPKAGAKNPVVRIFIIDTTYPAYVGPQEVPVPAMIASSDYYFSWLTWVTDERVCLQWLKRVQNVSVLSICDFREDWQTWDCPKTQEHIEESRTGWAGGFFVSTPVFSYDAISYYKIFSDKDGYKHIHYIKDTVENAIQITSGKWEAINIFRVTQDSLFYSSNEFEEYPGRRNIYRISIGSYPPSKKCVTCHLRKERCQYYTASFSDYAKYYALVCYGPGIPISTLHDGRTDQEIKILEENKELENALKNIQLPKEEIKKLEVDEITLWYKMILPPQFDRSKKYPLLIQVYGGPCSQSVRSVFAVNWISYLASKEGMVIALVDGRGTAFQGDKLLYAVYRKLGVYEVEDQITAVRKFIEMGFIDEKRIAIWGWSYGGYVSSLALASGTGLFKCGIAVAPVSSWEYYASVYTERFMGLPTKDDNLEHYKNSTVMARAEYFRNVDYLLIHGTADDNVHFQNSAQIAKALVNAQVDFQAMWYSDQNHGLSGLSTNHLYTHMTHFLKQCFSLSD
Experiment: unlabelled competitor ([…] concentrations) displacing […]-iFAP from HCT116 cells
Assay type: cell-based

In the case of C[C@H](NC(=O)c1ccc(NNC(=S)Nc2ccc(CC3CN(CC(=O)O)CCN(CC(=O)O)CCN(CC(=O)O)CCN3CC(=O)O)cc2)nc1)C(=O)N1CCC[C@@H]1B(O)O (stereo partly drawn) [DOTA-iFAP, 2,2′,2″,2‴-(2-(4-(2-(5-(((S)-1-((S)-2-boronopyrrolidin-1-yl)-1-oxopropan-2-yl)carbamoyl)pyridin-2-yl)hydrazine-1-carbothioamido)benzyl)-1,4,7,10-tetraazacyclododecane-1,4,7,10-tetrayl)tetraacetic acid], the IC50 is reported as 0.57 nM.
